Experiments:
[1] = test system: tumor sample from a patient affected by a metastatic melanoma; assay: Metastasis number and volume in avian embryo co-grafted with human PBMCs and patient metastatic melanoma sample (FIG. 12C); format: in vivo; settings: patient metastatic melanoma sample + human PBMCs co-graft, vs NaCl
Procedure: Metastasis number (on the left) and volume of metastatic tumors (in the middle) have been assessed. On the right, pictures show the extension of the tumor after NaCl treatment (on top) and after Keytruda treatment (on the bottom).
(§1) The same experiment of example 9 was performed with other cancer cells: • MDAMB 231, well-known to be responsive to immunotherapy, and • a tumor sample issued from a patient affected by a metastatic melanoma.
Also, the number of metastases formed by patient tumoral cells in the avian embryonic tissues has been assessed by the following of fluorescently-labelled tumor cells, and subsequent quantification of the fluorescent signal in the embryo.

[2] = test system: human melanoma A375 cell line; assay: Tumor volume in avian embryo co-grafted with A375 melanoma cells and human PBMCs (FIG. 12A); format: in vivo; settings: A375 + human PBMCs co-graft, Keytruda injected 24 hours post-grafting, vs excipient, two to three days post-grafting
Procedure: To determine whether tumors composed of mixed human tumoral cells and immune cells are sensitive to anti-PD1 antibody treatment, the human melanoma A375 cell line was selected for the experiments. Indeed, this cell line was recently reported to express significant levels of PDL1 and to respond to anti-PD1 immunotherapy (Kuryk L, Møller A W, Jaderberg M, 2019).
A375 melanoma cells were cultured and co-grafted with human PBMC cells as previously described.
Two to three days post-grafting, embryos were collected and processed for imaging with a confocal light sheet microscope. The volume of the tumors was quantified using IMARIS software.

[3] = test system: T lymphocytes of PBMCs co-grafted with MDAMD231 tumoral cells; assay: Activation and exhaustion markers on immune cells co-grafted with MDAMD231 cells in avian embryo, Keytruda treatment (FIG. 11D); format: in vivo, human; settings: PBMCs co-grafted with MDAMD231, Keytruda 5 mg/ml, 24 hours, vs NaCl
Text: Expression of activation and exhaustion markers on co-grafted immune cells was quantified.

[4] = test system: CD4 and CD8 T cells of grafted human PBMCs; assay: Activation and exhaustion markers on T cells of PBMCs grafted or co-grafted with MDAMB436 cells in avian embryo, with or without Keytruda (FIG. 11C); format: in vivo; settings: FACS 48 hours post-grafting
Procedure: (11C) PBMC were co-grafted with tumoral cells: Pmela (a PDL1 negative cell line) or MDAMB436 (a PDL1 weak positive cell line).
Markers of activation (CD69, HLADR on the left) and exhaustion (CTLA4, PD1, on the right) were determined in PBMCs after co-grafting with human tumoral cells (Pmela or MDAM) in an avian embryo. Values are expressed in frequency over CD4+ and CD8+ populations in ratios of total identified lymphocytes (CD3+CD4+ and CD3+CD8+). Standard Deviations show data from a pool of PBMC from different healthy donors. Left Graph: CD4+, right graph: CD8+.
Then, MDAMB436 cells or Pmela cells were co-grafted with human PBMC cells.
At two days (48 hours) post-grafting, PBMCs were isolated from grafted embryos and analyzed by FACS.
Finally, grafted PBMCs were isolated by Percoll density separation and stained cells for markers of activation (CD69/HLADR) and exhaustion (CTLA4/PD1).
Standard Deviations show data from a pool of PBMC from different healthy donors. Values are expressed in ratios of the specific marker over CD3+CD4+ and CD3+CD8+ populations.

MDAMB 231 tumoral cells = assay: Tumor volume in avian embryo co-grafted with MDAMB 231 cells and human PBMCs (FIG. 12B); format: in vivo; settings: MDAMB 231 + human PBMCs co-graft, vs NaCl, raw and BSA-normalized
Procedure: as §1

Pemzolibrumab [Keytruda]
metastasis number (ability of tumor cells to metastasis) [1]: significantly decreased | metastatic-volume [1]: significant reduction | volume of the tumor [2]: decreases significantly | expression of exhaustion marker PD1 [3]: decreased | expression of exhaustion marker TIM-3 [3]: decreased | levels of CTLA4 on the CD8 compartment ([4]; embryo treated 24 hours with Keytruda (PD1 blocking)): very high levels | PD1 expression/accessibility on CD8 T cells ([4]; embryo treated 24 hours with Keytruda): minimization | tumor volume (MDAMB 231 tumoral cells): significant reduction
